Results as given in paper PMC11124822, “Discovery and Anticancer Screening of Novel Oxindole-Based Derivative Bearing Pyridyl Group as Potent and Selective Dual FLT3/CDK2 Kinase Inhibitor” (Pharmaceuticals, 2024).

Tests used:
Experiment in all cases: NCI-60 antiproliferative screen (SRB)
[1] = test system: DU-145; assay type: cell-based, human; conditions: Homo sapiens; 10 µM single dose, 48 h; DU-145 (Prostate); read-out: Growth inhibition (%)
[2] = test system: SF-268; assay type: cell-based, human; conditions: Homo sapiens; 10 µM single dose, 48 h; SF-268 (CNS); read-out: Growth inhibition (%)
[3] = test system: ACHN; assay type: cell-based, human; conditions: Homo sapiens; 10 µM single dose, 48 h; ACHN (Renal); read-out: Growth inhibition (%)
[4] = test system: HCC-2998; assay type: cell-based, human; conditions: Homo sapiens; 10 µM single dose, 48 h; HCC-2998 (Colon); read-out: Growth inhibition (%)
[5] = test system: NCI-H322M; assay type: cell-based, human; conditions: Homo sapiens; 10 µM single dose, 48 h; NCI-H322M (NSCLC); read-out: Growth inhibition (%)
[6] = test system: HL-60(TB); assay type: cell-based, human; conditions: Homo sapiens; 10 µM single dose, 48 h; HL-60(TB) (Leukemia); read-out: Growth inhibition (%)
[7] = test system: HCT-15; assay type: cell-based, human; conditions: Homo sapiens; 10 µM single dose, 48 h; HCT-15 (Colon); read-out: Growth inhibition (%)
[8] = test system: M14; assay type: cell-based, human; conditions: Homo sapiens; 10 µM single dose, 48 h; M14 (Melanoma); read-out: Growth inhibition (%)
[9] = test system: OVCAR-4; conditions: Homo sapiens, OVCAR-4, 48 h, read-out: Growth inhibition (%)
Description: (§1) Anticancer activity was tested against 60 cancer cell lines (NCI-60) after 48h treatments with a single dosage of 10 μM of compounds by using sulforhodamine B assay [39] on the traditional 96-well platform. […] The human cancer cell lines of the NCI-60 panel are grown in RPMI 1640 medium supplemented with 5% FBS (fetal bovine serum) and 2 mM L-glutamine. […] For further analysis of promising compounds, five dose screens were performed against the NCI-60 panel. Drug treatments are performed in 5 doses using 10-fold or ½ log dose dilutions.

[10] = test system: A498; assay type: cell-based, human; conditions: Homo sapiens; 10 µM single dose, 48 h; A498 (Renal); read-out: Growth inhibition (%)
[11] = test system: MCF7; assay type: cell-based, human; conditions: Homo sapiens; 10 µM single dose, 48 h; MCF7 (Breast); read-out: Growth inhibition (%)
[12] = test system: SNB-75; conditions: Homo sapiens, SNB-75, 48 h, read-out: Growth inhibition (%)
Description: as §1

[13] = test system: NCI-H460; assay type: cell-based, human; conditions: Homo sapiens; 10 µM single dose, 48 h; NCI-H460 (NSCLC); read-out: Growth inhibition (%)
[14] = test system: SR; conditions: Homo sapiens, 48 h, read-out: Growth inhibition (%)
Description: as §1

[15] = test system: SW-620; assay type: cell-based, human; conditions: Homo sapiens; 10 µM single dose, 48 h; SW-620 (Colon); read-out: Growth inhibition (%)
[16] = test system: MDA-MB-435; assay type: cell-based, human; conditions: Homo sapiens; 10 µM single dose, 48 h; MDA-MB-435 (Melanoma); read-out: Growth inhibition (%)
[17] = test system: K-562; assay type: cell-based, human; conditions: Homo sapiens, K562; 10 µM single dose, 48 h; K-562 (Leukemia); read-out: Growth inhibition (%)
[18] = test system: COLO 205; assay type: cell-based, human; conditions: Homo sapiens; 10 µM single dose, 48 h; COLO 205 (Colon); read-out: Growth inhibition (%)
[19] = test system: RPMI-8226; assay type: cell-based, human; conditions: Homo sapiens; 10 µM single dose, 48 h; RPMI-8226 (Leukemia); read-out: Growth inhibition (%)
[20] = test system: OVCAR-3; assay type: cell-based, human; conditions: Homo sapiens; 10 µM single dose, 48 h; OVCAR-3 (Ovarian); read-out: Growth inhibition (%)
[21] = test system: MALME-3M; assay type: cell-based, human; conditions: Homo sapiens; 10 µM single dose, 48 h; MALME-3M (Melanoma); read-out: Growth inhibition (%)
[22] = test system: NCI-H522; assay type: cell-based, human; conditions: Homo sapiens; 10 µM single dose, 48 h; NCI-H522 (NSCLC); read-out: Growth inhibition (%)
[23] = test system: SF-539; assay type: cell-based, human; conditions: Homo sapiens; 10 µM single dose, 48 h; SF-539 (CNS); read-out: Growth inhibition (%)
[24] = test system: BT-549; assay type: cell-based, human; conditions: Homo sapiens; 10 µM single dose, 48 h; BT-549 (Breast); read-out: Growth inhibition (%)
[25] = test system: NCI-H23; assay type: cell-based, human; conditions: Homo sapiens; 10 µM single dose, 48 h; NCI-H23 (NSCLC); read-out: Growth inhibition (%)
[26] = test system: OVCAR-5; assay type: cell-based, human; conditions: Homo sapiens; 10 µM single dose, 48 h; OVCAR-5 (Ovarian); read-out: Growth inhibition (%)
[27] = test system: SK-MEL-2; assay type: cell-based, human; conditions: Homo sapiens; 10 µM single dose, 48 h; SK-MEL-2 (Melanoma); read-out: Growth inhibition (%)
[28] = test system: 786-0; assay type: cell-based, human; conditions: Homo sapiens; 10 µM single dose, 48 h; 786-0 (Renal); read-out: Growth inhibition (%)
[29] = test system: HS 578T; assay type: cell-based, human; conditions: Homo sapiens; 10 µM single dose, 48 h; HS 578T (Breast); read-out: Growth inhibition (%)
[30] = test system: NCI/ADR-RES; assay type: cell-based, human; conditions: Homo sapiens; 10 µM single dose, 48 h; NCI/ADR-RES (Ovarian); read-out: Growth inhibition (%)
[31] = test system: UO-31; assay type: cell-based, human; conditions: Homo sapiens; 10 µM single dose, 48 h; UO-31 (Renal); read-out: Growth inhibition (%)

O=C1Nc2ccc(Cl)cc2C1=Cc1ccc(OCc2ccccn2)cc1 (mixture of isomers) [Compound 5g, (E/Z)-5-Chloro-3-[4-(pyridin-2-ylmethoxy)benzylidene] indolin-2-one]
inhibition at 10 µM [1]: 12.2%
inhibition at 10 µM [2]: 20.7%
inhibition at 10 µM [3]: 43%
inhibition at 10 µM [4]: -4.51%
inhibition at 10 µM [5]: 35.8%
inhibition at 10 µM [6]: 15%
inhibition at 10 µM [7]: 64.3%
inhibition at 10 µM [8]: 10.1%
inhibition at 10 µM [9]: 102%
inhibition at 10 µM [10]: 54.9%
inhibition at 10 µM [11]: 71.1%
inhibition at 10 µM [12]: -12.6%
inhibition at 10 µM [13]: 84%
inhibition at 10 µM [14]: 45.1%
inhibition at 10 µM [15]: 52.5%
inhibition at 10 µM [16]: 23.1%
inhibition at 10 µM [17]: 49%
inhibition at 10 µM [18]: 10.9%
inhibition at 10 µM [19]: 26.1%
inhibition at 10 µM [20]: 42.7%
inhibition at 10 µM [21]: 61.5%
inhibition at 10 µM [22]: 34%
inhibition at 10 µM [23]: 26.5%
inhibition at 10 µM [24]: 21.2%
inhibition at 10 µM [25]: 37.8%
inhibition at 10 µM [26]: 11.8%
inhibition at 10 µM [27]: -11.4%
inhibition at 10 µM [28]: 74.3%
inhibition at 10 µM [29]: 85.2%
inhibition at 10 µM [30]: 85.9%
inhibition at 10 µM [31]: 40.5%

O=C1Nc2ccccc2C1=Cc1ccc(OCc2ccccn2)cc1 (mixture of isomers) [Compound 5e, (E/Z)-3-[4-(Pyridin-2-ylmethoxy]benzylidene) indolin-2-one]
inhibition at 10 µM [1]: 20.3%
inhibition at 10 µM [2]: 27.3%
inhibition at 10 µM [3]: 33.6%
inhibition at 10 µM [4]: 1.6%
inhibition at 10 µM [5]: 29.5%
inhibition at 10 µM [6]: 38.8%
inhibition at 10 µM [7]: 45.9%
inhibition at 10 µM [8]: 8.3%
inhibition at 10 µM [9]: 30.8%
inhibition at 10 µM [10]: 16.4%
inhibition at 10 µM [11]: 50.8%
inhibition at 10 µM [12]: 34.7%
inhibition at 10 µM [13]: 15%
inhibition at 10 µM [14]: 57.7%
inhibition at 10 µM [16]: 10.1%
inhibition at 10 µM [17]: 59.2%
inhibition at 10 µM [18]: -14.7%
inhibition at 10 µM [19]: 64%
inhibition at 10 µM [20]: 18.2%
inhibition at 10 µM [21]: 25.4%
inhibition at 10 µM [22]: 24.6%
inhibition at 10 µM [23]: 35.3%
inhibition at 10 µM [24]: 41.2%
inhibition at 10 µM [25]: 21.4%
inhibition at 10 µM [26]: 5.53%
inhibition at 10 µM [27]: -12.2%
inhibition at 10 µM [28]: 18%
inhibition at 10 µM [30]: 46.7%
inhibition at 10 µM [31]: 61.2%

O=C1Nc2ccccc2C1=Cc1ccc(OCc2ccccc2)cc1 (mixture of isomers) [Compound 5a, (E/Z)-3-[4-(Benzyloxy)benzylidene] indolin-2-one]
inhibition at 10 µM [1]: -4.38%
inhibition at 10 µM [2]: -1.74%
inhibition at 10 µM [3]: -4.27%
inhibition at 10 µM [4]: -13.1%
inhibition at 10 µM [5]: 0.44%
inhibition at 10 µM [6]: 11.5%
inhibition at 10 µM [7]: 0.04%
inhibition at 10 µM [8]: 5.67%
inhibition at 10 µM [9]: -7.99%
inhibition at 10 µM [10]: 7.9%
inhibition at 10 µM [11]: 15.8%
inhibition at 10 µM [12]: 14.6%
inhibition at 10 µM [13]: -8.64%
inhibition at 10 µM [14]: 14.6%
inhibition at 10 µM [15]: -7.33%
inhibition at 10 µM [16]: -2.33%
inhibition at 10 µM [17]: 11.8%
inhibition at 10 µM [18]: -13.1%
inhibition at 10 µM [19]: 1.13%
inhibition at 10 µM [21]: -7.59%
inhibition at 10 µM [22]: 2.18%
inhibition at 10 µM [23]: -3.4%
inhibition at 10 µM [24]: -5.74%
inhibition at 10 µM [25]: -2.42%
inhibition at 10 µM [26]: -2.24%
inhibition at 10 µM [27]: -4.59%
inhibition at 10 µM [28]: 3.67%
inhibition at 10 µM [29]: -6.13%
inhibition at 10 µM [30]: -0.55%
inhibition at 10 µM [31]: 14.9%

O=C1Nc2cc(Cl)ccc2C1=Cc1ccc(OCc2ccccn2)cc1 (mixture of isomers) [Compound 5h, (E/Z)-6-Chloro-3-[4-(pyridin-2-ylmethoxy)benzylidene]indolin-2-one]
inhibition at 10 µM [1]: 39.6%
inhibition at 10 µM [2]: 23.2%
inhibition at 10 µM [3]: 9.61%
inhibition at 10 µM [4]: 16.7%
inhibition at 10 µM [5]: 24.7%
inhibition at 10 µM [6]: 5.33%
inhibition at 10 µM [7]: 45.5%
inhibition at 10 µM [8]: 20%
inhibition at 10 µM [9]: 75.8%
inhibition at 10 µM [10]: -11.5%
inhibition at 10 µM [11]: 63.7%
inhibition at 10 µM [12]: 63.3%
inhibition at 10 µM [13]: 56.7%
inhibition at 10 µM [14]: 42.8%
inhibition at 10 µM [16]: 23.9%
inhibition at 10 µM [17]: 31.4%
inhibition at 10 µM [18]: -3.47%
inhibition at 10 µM [19]: 32.4%
inhibition at 10 µM [20]: 6.16%
inhibition at 10 µM [21]: 18%
inhibition at 10 µM [22]: 31.6%
inhibition at 10 µM [23]: 57.7%
inhibition at 10 µM [24]: 33.8%
inhibition at 10 µM [25]: 47.4%
inhibition at 10 µM [26]: 15.6%
inhibition at 10 µM [27]: -10.3%
inhibition at 10 µM [28]: 18.7%
inhibition at 10 µM [30]: 39%
inhibition at 10 µM [31]: 38%

O=C1Nc2ccc(Cl)cc2C1=Cc1ccc(OCc2ccccc2)cc1 (mixture of isomers) [Compound 5c, (E/Z)-3-[4-(Benzyloxy)benzylidene]-5-chloroindolin-2-one]
inhibition at 10 µM [1]: -5.61%
inhibition at 10 µM [2]: 3.26%
inhibition at 10 µM [3]: -1.45%
inhibition at 10 µM [4]: -3.96%
inhibition at 10 µM [5]: -0.07%
inhibition at 10 µM [6]: -3.22%
inhibition at 10 µM [7]: -4.25%
inhibition at 10 µM [8]: 7.34%
inhibition at 10 µM [9]: -7.18%
inhibition at 10 µM [10]: -2.37%
inhibition at 10 µM [11]: 16%
inhibition at 10 µM [12]: 13.1%
inhibition at 10 µM [13]: -3.66%
inhibition at 10 µM [14]: -0.06%
inhibition at 10 µM [15]: 1.08%
inhibition at 10 µM [16]: -3.79%
inhibition at 10 µM [17]: -0.34%
inhibition at 10 µM [18]: -6.62%
inhibition at 10 µM [19]: -3.85%
inhibition at 10 µM [21]: -13%
inhibition at 10 µM [22]: 2.1%
inhibition at 10 µM [23]: 4.12%
inhibition at 10 µM [24]: -2.68%
inhibition at 10 µM [25]: -1.96%
inhibition at 10 µM [26]: -2.92%
inhibition at 10 µM [27]: -0.35%
inhibition at 10 µM [28]: -2.86%
inhibition at 10 µM [29]: -2.25%
inhibition at 10 µM [30]: 1.88%
inhibition at 10 µM [31]: 23.9%
